According to US9181176B2, “7-[3,5-dihydroxy-2-(3-hydroxy-5-phenyl-pent-1-enyl)-cyclopentyl]-N-ethyl-hept-5-enamide (bimatoprost) in crystalline form II, methods for preparation, and methods for use thereof” (Allergan, Inc., priority 2009, dated 2015):

Columns and labels:
Assay type in all cases: physicochemical
[1] = Solid-state polymorphic transformation in laboratory stress study samples (DSC); conditions: 40° C., 70-day time-point
Description: Two Bimatoprost lots (X11192 and X10510) were subjected to a variety of experimental stress conditions at 40° C. (see Table 6). The experimental design included ambient air and argon headspaces, exposure to fluorescent light, and different surface-to-volume ratios. The 70-day time-point samples were analyzed by HPLC and DSC.

[2] = Solid-state polymorphic transformation in samples of the formal stability program (DSC, IR); conditions: stored 18 months at 25° C./60% RH
Description: The colored particle was separated from the white drug substance, and DSC was performed on both. In order to determine whether bimatoprost spontaneously converts from polymorph I to polymorph II at elevated temperatures (i.e. higher than the prescribed storage temperature), a number of other lots in the formal stability program were also analyzed by DSC. All the formal stability samples tested consisted of polymorph II. Since the control (frozen) samples from the same lots were previously analyzed by DSC with the results showing that none of them contained polymorph II, there is a clear indication that a polymorphic transformation had occurred under the stability conditions employed.

[3] = Determination of the aqueous solubility of polymorph II; conditions: 0.4% suspension rotated continuously over a weekend; supernatants assayed by HPLC
Description: The aqueous solubility of polymorph II was determined by preparing in duplicate a 0.4% suspension of a formal stability sample (lot X10510 stored at 25° C./60% RH for 23 months, confirmed as polymorph II). Temperature Program 1 (hold for 1.0 minute at 30° C. and then heat from 30° C. to 85° C. at 2.0° C. per minute), was used to test the 23-month stability sample by DSC to reconfirm the presence of only polymorph II (which was, indeed, the case). The suspension was allowed to rotate continuously over a weekend. The supernatants were assayed by HPLC using X11192 Secondary Reference Standard to determine the drug contents. […] Since the active pharmaceutical ingredient will be used in a formulation at a concentration that is only one-tenth of the aqueous solubility of the active pharmaceutical ingredient (as either polymorph), there is no effect of crystal habit on product characteristics or manufacturing process.

## CCNC(=O)CCC/C=C\C[C@@H]1[C@@H](/C=C/[C@@H](O)CCc2ccccc2)[C@H](O)C[C@@H]1O [X11192, bimatoprost]
[1]; air or argon headspace, light or dark
  polymorphic form after stress (DSC): polymorph I

## CCNC(=O)CCC/C=C\C[C@@H]1[C@@H](/C=C/[C@@H](O)CCc2ccccc2)[C@H](O)C[C@@H]1O [X10510, bimatoprost]
[2]
  polymorphic form after storage (DSC and IR): yielded substantial amounts of polymorph II
[1]; ambient air headspace, regardless of light exposure
  polymorphic form after stress (DSC): partial morphological conversion in which both polymorphs I and II were present simultaneously

## CCNC(=O)CCCC=CCC1C(O)CC(O)C1C=CC(O)CCc1ccccc1 (stereo not shown) [polymorph II, 7-[3,5-dihydroxy-2-(3-hydroxy-5-phenyl-pent-1-enyl)-cyclopentyl]-N-ethyl-hept-5-enamide]
[3]
  aqueous solubility: 0.3 % w/w
